Patent publication US7691883B2, “Cinnamoyl compound and use of the same” (Sumitomo Chemical Company, Limited, priority 2003, dated 2010)

Assay: Ability of a test compound to regulate transcription of a Type I collagen gene using the expression level of a reporter gene (COL-Luc luciferase) as an index
Type: cell-based
Conditions: final concentration 1 μM; normal human fetal skin fibroblast transfected with COL-Luc; TGF-β, 40 hours; read-out: inhibition percentage (inhibitory effect on the ability of TGF-β to promote transcription of a Type I collagen gene)
Method: 1×10^8 cells of a normal human fetal skin fibroblast (Clontech, catalogue No. CC-2509) were cultured at 37° C. overnight under 5% CO2 atmosphere. After the cultured cells were washed with a sodium phosphate buffer (hereinafter, referred to as PBS) twice, 3 ml of PBS was added thereto and the cells were scraped away the wall of a vessel using a cell scraper (Nalgen, catalogue No. 179693). The scraped cells were collected by centrifugation (1,500 rpm, 4° C., 15 min), and these were suspended in 20 ml of PBS and centrifuged again. To the resulting precipitates were added 11 ml of Solution 2 and 4.8 μl of pronase of DNA Extraction Kit (Stratagene, catalogue No. 200600). After shaken at 60° C. for 1 hour, the resulting mixture was allowed to stand in ice for 10 minutes. Then, 4 ml of Solution 3 of the kit was added to the mixture. After mixed, the mixture was allowed to stand in ice for 5 minutes and then centrifuged (3,000 rpm, 4° C., 15 min) to recover a supernatant. To the recovered supernatant was added 2 μl of RNase per 1 ml of the supernatant and the mixture was allowed to stand at 37° C. for 15 minutes. To the mixture was added 2-fold volume of ethanol. After mixed, a white thread-like substance (genomic DNA) appeared and the substance was recovered. The recovered genomic DNA washed with 70% ethanol and then air-dried. The air-dried genomic DNA was dissolved in 500 μl of 10 mM Tris-HCl, 1 mM EDTA (pH 8.0) (hereinafter, referred to as TE).
The resulting genomic DNA solution (the amount equivalent to 1 μg of genomic DNA), each 1 μl (10 pmol/μl) of an oligonucleotide consisting of the nucleotide sequence represented by SEQ ID No:1 and an oligonucleotide consisting of the nucleotide sequence represented by SEQ ID No:2, 29 μL of distilled water, 5 μl of the buffer attached to TaKaRa LA Taq (TAKARA SHUZO, catalogue No. RR002A), 5 μL of a Mg^2+ solution, 5 μL of a dNTP mixture and 0.5 μl of TaKaRa LA Taq (TAKARA SHUZO, catalogue No. RR002A) were mixed. After the resulting mixed solution was incubated at 94° C. for 5 minutes, the mixed solution was subjected to 30 cycles, in which one cycle consists of incubation at 94° C. for 1 minute, at 60° C. for 1 minute and then at 72° C. for 1 minute. The mixed solution was electrophoresed on a 2% agarose gel to recover about 0.5 kb of a DNA. The recovered DNA was treated with phenol/chloroform and then precipitated with ethanol to recover the DNA. The resulting DNA was dissolved in ultrapure water. To this solution were added 2.5 μl of NheI and 2.5 μl of HindIII, and then incubated at 37° C. for 3 hours. Then, the solution was electrophoresed on a 2% agarose gel to recover about 3.5 kb of a DNA. The recovered DNA was precipitated with ethanol to recover again the DNA (hereinafter, referred to as the collagen promoter DNA).
On the other hand, the vector pGL3 (Promega, catalogue No. E1751) having the nucleotide sequence encoding firefly luciferase was digested with NheI and HindIII, and then subjected to agarose gel electrophoresis as described above to recover about 5 kb of a DNA. The recovered DNA was precipitated with ethanol to recover the DNA again. To the recovered DNA were added 44 μl of distilled water, 5 μl of Buffer attached to Alkaline Phosphatase (TAKARA SHUZO, catalogue No. 2120A) and 1 μl of Alkaline Phosphatase (TAKARA SHUZO, catalogue No. 2120A). The mixed solution was incubated at 65° C. for 30 minutes. Then, the mixed solution was treated with phenol/chloroform twice, and precipitated with ethanol to recover the DNA (hereinafter referred to as the Luc vector DNA). Then, after about 20 ng of the collagen promoter DNA and about 20 ng of the Luc vector DNA were mixed, the same amount of a DNA Ligation kit Ver2 enzyme solution was added and this was incubated overnight at 16° C. To the mixed solution was added Escherichia coli 5Hdα (TOYOBO, catalogue No. DNA-903), this was allowed to stand in ice for 30 minutes, and then incubated at 42° C. for 45 seconds. […]

**Q.** Which inhibition at 1 µM does the source give for `C=CCOc1cccc(C=CC(=O)c2c(OCC=C)cc(C)oc2=O)c1` [(1b), 4-allyloxy-3-[3-(3-allyloxyphenyl)-1-oxo-2-propenyl]-6-methyl-2H-pyran-2-one] here?
**A.** ≥ 70%

**Q.** With `COc1cc(C)oc(=O)c1C(=O)C=Cc1cccc(C=CC#N)c1` [(2a), 4-methoxy-3-[3-[3-(2-cyanoethenyl)phenyl]-1-oxo-2-propenyl]-6-methyl-2H-pyran-2-one] as the compound, how does the inhibition at 1 µM read?
**A.** ≥ 70%

**Q.** Which inhibition at 1 µM does the source give for `C#CCOc1cccc(C=CC(=O)c2c(OCC=C)cc(C)oc2=O)c1` [(2b), 4-allyloxy-3-[3-(3-propargyloxyphenyl)-1-oxo-2-propenyl]-6-methyl-2H-pyran-2-one] here?
**A.** ≥ 70%

**Q.** With `C=CCOc1cccc(C=CC(=O)c2c(OC)cc(C)oc2=O)c1` [(5a), 4-methoxy-3-[3-(3-allyloxyphenyl)-1-oxo-2-propenyl]-6-methyl-2H-pyran-2-one] as the compound, how does the inhibition at 1 µM read?
**A.** ≥ 70%

**Q.** Which inhibition at 1 µM does the source give for `C#CCOc1cccc(C=CC(=O)c2c(O)cc(C)oc2=O)c1` [(7a), 4-hydroxy-3-[3-(3-propargyloxyphenyl)-1-oxo-2-propenyl]-6-methyl-2H-pyran-2-one] here?
**A.** ≥ 70%

**Q.** With `C#CCOc1ccc(C=CC(=O)c2c(OC)cc(C)oc2=O)cc1` [(10a), 4-methoxy-3-[3-(4-propargyloxyphenyl)-1-oxo-2-propenyl]-6-methyl-2H-pyran-2-one] as the compound, how does the inhibition at 1 µM read?
**A.** ≥ 70%

**Q.** With `CSCCOc1cccc(C=CC(=O)c2c(N3CCCCC3)cc(C)oc2=O)c1` [(14b), 4-piperidino-3-[3-[3-(2-methylthioethoxy)phenyl]-1-oxo-2-propenyl]-6-methyl-2H-pyran-2-one] as the compound, how does the inhibition at 1 µM read?
**A.** ≥ 70%

**Q.** With `N#CCOc1cccc(C=CC(=O)c2c(O)c3ccccc3oc2=O)c1` [(14d), 4-hydroxy-3-[3-[3-(cyanomethoxy)phenyl]-1-oxo-2-propenyl]-2H-1-benzopyran-2-one] as the compound, how does the inhibition at 1 µM read?
**A.** ≥ 70%

**Q.** With `COc1cc(C)oc(=O)c1C(=O)C=Cc1cccc(OCC#N)c1` [(15a), 4-methoxy-3-[3-[3-(cyanomethoxy)phenyl]-1-oxo-2-propenyl]-6-methyl-2H-pyran-2-one] as the compound, how does the inhibition at 1 µM read?
**A.** ≥ 70%

**Q.** For `COc1c(C(=O)C=Cc2cccc(OCC#N)c2)c(=O)oc2ccccc12` [(15d), 4-methoxy-3-[3-[3-(cyanomethoxy)phenyl]-1-oxo-2-propenyl]-2H-1-benzopyran-2-one], which inhibition at 1 µM is on record?
**A.** ≥ 70%

**Q.** Which inhibition at 1 µM does the source give for `COC(=O)CNC(=O)c1cccc(C=CC(=O)c2c(N3CCCCC3)cc(C)oc2=O)c1` [(16b), 4-piperidino-3-[3-[3-[[(methoxycarbonylmethyl)amino]carbonyl]phenyl]-1-oxo-2-propenyl]-6-methyl-2H-pyran-2-one] here?
**A.** ≥ 70%

**Q.** For `COCC(=O)Nc1cccc(C=CC(=O)c2c(N3CCCCC3)c3ccccc3oc2=O)c1` [(17e), 4-piperidino-3-[3-[3-(methoxyacetylamino)phenyl]-1-oxo-2-propenyl]-2H-1-benzopyran-2-one], which inhibition at 1 µM is on record?
**A.** ≥ 70%

**Q.** Which inhibition at 1 µM does the source give for `COCCOC(=O)Nc1cccc(C=CC(=O)c2c(N3CCCCC3)c3ccccc3oc2=O)c1` [(18e), 4-piperidino-3-[3-[3-[(2-methoxyethoxy)carbonylamino]phenyl]-1-oxo-2-propenyl]-2H-1-benzopyran-2-one] here?
**A.** ≥ 70%

**Q.** Which inhibition at 1 µM does the source give for `C#CCNc1cc(C)oc(=O)c1C(=O)C=Cc1cccc(C=CC#N)c1` [(20b), 4-propargylamino-3-[3-[3-(2-cyanoethenyl)phenyl]-1-oxo-2-propenyl]-6-methyl-2H-pyran-2-one] here?
**A.** ≥ 70%

**Q.** For `COCC(=O)Nc1cccc(C=CC(=O)c2c(OC)cc(C)oc2=O)c1` [(22a), 4-methoxy-3-[3-[3-(methoxyacetylamino)phenyl]-1-oxo-2-propenyl]-6-methyl-2H-pyran-2-one], which inhibition at 1 µM is on record?
**A.** ≥ 70%

**Q.** For `COCCOC(=O)Nc1cccc(C=CC(=O)c2c(O)cc(C)oc2=O)c1` [(24a), 4-hydroxy-3-[3-[3-[(2-methoxyethoxy)carbonylamino]phenyl]-1-oxo-2-propenyl]-6-methyl-2H-pyran-2-one], which inhibition at 1 µM is on record?
**A.** ≥ 70%

**Q.** With `COCCOC(=O)Nc1cccc(C=CC(=O)c2c(O)c3ccccc3oc2=O)c1` [(24d), 4-hydroxy-3-[3-[3-[(2-methoxyethoxy)carbonylamino]phenyl]-1-oxo-2-propenyl]-2H-1-benzopyran-2-one] as the compound, how does the inhibition at 1 µM read?
**A.** ≥ 70%

**Q.** With `COCCOC(=O)Nc1cccc(C=CC(=O)c2c(OC)cc(C)oc2=O)c1` [(25a), 4-methoxy-3-[3-[3-[(2-methoxyethoxy)carbonylamino]phenyl]-1-oxo-2-propenyl]-6-methyl-2H-pyran-2-one] as the compound, how does the inhibition at 1 µM read?
**A.** ≥ 70%

**Q.** Which inhibition at 1 µM does the source give for `COCCOC(=O)Nc1cccc(C=CC(=O)c2c(OC)c3ccccc3oc2=O)c1` [(25d), 4-methoxy-3-[3-[3-[(2-methoxyethoxy)carbonylamino]phenyl]-1-oxo-2-propenyl]-2H-1-benzopyran-2-one] here?
**A.** ≥ 70%

**Q.** Which inhibition at 1 µM does the source give for `Cc1cc(O)c(C(=O)C=Cc2ccc(C(=O)NCCO)cc2)c(=O)o1` [(32d), 4-hydroxy-3-[3-[4-[(2-hydroxyethyl)aminocarbonyl]phenyl]-1-oxo-2-propenyl]-6-methyl-2H-pyran-2-one] here?
**A.** ≥ 70%

**Q.** With `COCCNC(=O)c1ccc(C=CC(=O)c2c(O)cc(C)oc2=O)cc1` [(36a), 4-hydroxy-3-[3-[4-[(2-methoxyethyl)aminocarbonyl]phenyl]-1-oxo-2-propenyl]-6-methyl-2H-pyran-2-one] as the compound, how does the inhibition at 1 µM read?
**A.** ≥ 70%

**Q.** For `COCC(=O)Nc1cccc(C=CC(=O)c2c(OC)c3ccccc3oc2=O)c1` [Compound (22d), 4-methoxy-3-[3-[3-(methoxyacetylamino)phenyl]-1-oxo-2-propenyl]-2H-1-benzopyran-2-one], which inhibition at 1 µM is on record?
**A.** ≥ 70%
